Key:
FGFR3 = FGFR3 (Homo sapiens, UniProt P22607); test: Kinase panel profiling; format: biochemical
DDR2 = target: T1, DDR2 (Homo sapiens, UniProt Q16832); test: Kinase panel profiling; format: biochemical
T1 sequence (Q16832 22-855): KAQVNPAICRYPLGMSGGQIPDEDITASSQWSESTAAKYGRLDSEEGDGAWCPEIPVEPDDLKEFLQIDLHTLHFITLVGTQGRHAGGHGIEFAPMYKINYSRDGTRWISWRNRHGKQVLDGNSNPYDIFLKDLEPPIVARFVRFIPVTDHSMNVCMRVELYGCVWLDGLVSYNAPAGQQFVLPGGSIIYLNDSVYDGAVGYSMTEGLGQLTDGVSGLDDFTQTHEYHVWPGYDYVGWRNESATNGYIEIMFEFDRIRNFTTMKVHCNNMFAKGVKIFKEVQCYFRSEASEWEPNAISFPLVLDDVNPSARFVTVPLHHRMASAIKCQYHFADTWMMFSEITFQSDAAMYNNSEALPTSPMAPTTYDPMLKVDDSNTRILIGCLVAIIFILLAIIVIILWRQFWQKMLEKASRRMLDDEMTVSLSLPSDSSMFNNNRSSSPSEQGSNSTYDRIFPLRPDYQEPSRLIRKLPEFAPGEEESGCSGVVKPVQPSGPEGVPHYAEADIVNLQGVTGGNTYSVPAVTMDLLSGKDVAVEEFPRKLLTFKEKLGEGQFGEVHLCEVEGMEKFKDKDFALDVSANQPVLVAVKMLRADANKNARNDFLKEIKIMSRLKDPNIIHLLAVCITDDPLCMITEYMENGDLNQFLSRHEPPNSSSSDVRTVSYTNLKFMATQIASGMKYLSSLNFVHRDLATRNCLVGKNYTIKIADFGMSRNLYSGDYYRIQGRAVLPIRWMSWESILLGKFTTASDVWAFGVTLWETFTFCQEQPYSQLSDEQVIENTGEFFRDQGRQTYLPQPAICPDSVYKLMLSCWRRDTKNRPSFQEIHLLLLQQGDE

PDGFR-α = PDGFR-α (Homo sapiens, UniProt P16234); test: Kinase panel profiling; format: biochemical
Chain of PDGFR-α (P16234 24-1089, species assumed): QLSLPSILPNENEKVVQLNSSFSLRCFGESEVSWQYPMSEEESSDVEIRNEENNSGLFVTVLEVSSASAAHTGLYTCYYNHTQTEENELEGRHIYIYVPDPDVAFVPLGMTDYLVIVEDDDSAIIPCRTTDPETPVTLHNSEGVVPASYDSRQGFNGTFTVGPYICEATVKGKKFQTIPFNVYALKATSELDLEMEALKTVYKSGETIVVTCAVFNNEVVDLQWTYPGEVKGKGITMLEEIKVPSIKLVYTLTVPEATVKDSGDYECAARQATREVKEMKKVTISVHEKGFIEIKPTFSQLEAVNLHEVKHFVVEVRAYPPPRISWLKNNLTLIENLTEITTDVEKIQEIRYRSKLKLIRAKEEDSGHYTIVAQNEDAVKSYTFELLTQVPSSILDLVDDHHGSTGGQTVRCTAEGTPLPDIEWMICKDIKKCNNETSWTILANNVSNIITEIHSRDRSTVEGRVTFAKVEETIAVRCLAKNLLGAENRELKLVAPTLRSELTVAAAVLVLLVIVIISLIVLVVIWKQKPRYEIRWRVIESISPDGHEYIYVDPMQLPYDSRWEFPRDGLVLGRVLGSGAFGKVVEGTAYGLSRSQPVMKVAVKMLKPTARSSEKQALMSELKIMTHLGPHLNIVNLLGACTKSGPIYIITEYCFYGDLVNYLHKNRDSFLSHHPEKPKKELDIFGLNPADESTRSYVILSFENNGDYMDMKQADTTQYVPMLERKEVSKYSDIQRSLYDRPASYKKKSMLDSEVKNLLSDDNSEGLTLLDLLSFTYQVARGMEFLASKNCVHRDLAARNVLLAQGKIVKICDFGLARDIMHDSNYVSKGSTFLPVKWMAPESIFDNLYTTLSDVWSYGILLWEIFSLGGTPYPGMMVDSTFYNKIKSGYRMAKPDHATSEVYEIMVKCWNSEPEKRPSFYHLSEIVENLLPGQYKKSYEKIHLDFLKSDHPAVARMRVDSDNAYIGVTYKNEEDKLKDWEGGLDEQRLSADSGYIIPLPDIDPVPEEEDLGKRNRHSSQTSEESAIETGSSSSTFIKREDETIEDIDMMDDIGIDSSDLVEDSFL

PDGFR-β = PDGFR-β (Homo sapiens, UniProt P09619); test: Kinase panel profiling; format: biochemical
[1] = Human liver microsome stability test; format: in vitro ADME; conditions: human liver microsomes, pH 7.4, 1 μM test compound, read-out: HLM (human liver microsome stability test, clearance)
Protocol: Microsomes (Human microsome: Xenotech, Lot No.H0610; Rat microsome: Xenotech, Lot No. R1000) (0.5 mg/mL) were preincubated with 1 μM of test compound for 5 min at 37 °C in 0.1 M phosphate buffer (pH 7.4) with 1 mmol Ethylenediaminetetraacetic acid (EDTA), and 5 mmol MgCl2. The reactions were initiated by adding prewarmed cofactors (1 mmol NADPH). After 0-min, 5-min, 10-min, and 30-min incubations at 37 °C, the reactions were stopped by adding an equal volume of cold acetonitrile. The samples were vortexed for 10 min, and then centrifuged at 10,000× g for 10 min. Supernatants were analyzed by LC/MS/MS for the amount of the parent compound remaining, and the corresponding loss of the parent compound was also determined by LC/MS/MS.

FGFR2 = FGFR2 (Homo sapiens, UniProt P21802); test: Kinase panel profiling; format: biochemical
IGF1R = IGF1R (Homo sapiens, UniProt P08069); test: Kinase panel profiling; format: biochemical
Chain of IGF1R (P08069 31-1367, species assumed): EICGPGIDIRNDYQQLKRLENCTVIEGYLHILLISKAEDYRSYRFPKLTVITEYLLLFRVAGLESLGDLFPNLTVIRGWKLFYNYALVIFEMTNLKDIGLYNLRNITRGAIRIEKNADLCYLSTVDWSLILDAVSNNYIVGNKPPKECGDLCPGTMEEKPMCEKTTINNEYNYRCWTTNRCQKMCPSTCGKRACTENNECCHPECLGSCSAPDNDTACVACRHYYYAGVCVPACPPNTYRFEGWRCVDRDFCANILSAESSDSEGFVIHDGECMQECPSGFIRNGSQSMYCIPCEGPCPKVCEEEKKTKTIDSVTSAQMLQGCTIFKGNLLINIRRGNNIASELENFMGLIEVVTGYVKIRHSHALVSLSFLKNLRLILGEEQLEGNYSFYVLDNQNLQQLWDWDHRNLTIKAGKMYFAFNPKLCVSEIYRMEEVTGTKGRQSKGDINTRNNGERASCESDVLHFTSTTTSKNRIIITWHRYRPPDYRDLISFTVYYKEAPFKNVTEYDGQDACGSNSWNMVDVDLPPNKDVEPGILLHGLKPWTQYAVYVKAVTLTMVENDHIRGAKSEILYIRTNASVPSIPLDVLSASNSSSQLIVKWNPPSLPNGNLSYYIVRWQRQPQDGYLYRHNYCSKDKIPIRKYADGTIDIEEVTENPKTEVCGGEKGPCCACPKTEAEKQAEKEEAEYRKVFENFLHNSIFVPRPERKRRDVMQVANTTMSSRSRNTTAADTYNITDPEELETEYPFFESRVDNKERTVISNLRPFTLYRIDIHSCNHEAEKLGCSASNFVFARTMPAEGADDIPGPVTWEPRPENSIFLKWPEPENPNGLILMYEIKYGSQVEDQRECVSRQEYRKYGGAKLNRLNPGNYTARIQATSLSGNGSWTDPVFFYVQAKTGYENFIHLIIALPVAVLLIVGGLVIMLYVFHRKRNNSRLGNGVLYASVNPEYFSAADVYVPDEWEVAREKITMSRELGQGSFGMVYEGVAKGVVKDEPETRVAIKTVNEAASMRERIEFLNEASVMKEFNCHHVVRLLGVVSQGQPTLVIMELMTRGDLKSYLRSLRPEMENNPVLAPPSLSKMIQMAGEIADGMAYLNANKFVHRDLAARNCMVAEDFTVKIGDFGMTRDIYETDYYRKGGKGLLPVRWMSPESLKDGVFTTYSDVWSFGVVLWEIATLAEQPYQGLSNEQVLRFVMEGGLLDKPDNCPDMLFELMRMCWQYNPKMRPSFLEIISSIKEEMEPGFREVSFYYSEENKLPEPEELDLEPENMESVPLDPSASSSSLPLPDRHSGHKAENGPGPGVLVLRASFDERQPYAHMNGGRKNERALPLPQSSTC

ROS1 = ROS1 (Homo sapiens, UniProt P08922); test: Kinase panel profiling; format: biochemical
EGFR = EGFR (Homo sapiens, UniProt P00533); test: Kinase panel profiling; format: biochemical
Chain of EGFR (P00533 25-1210, species assumed): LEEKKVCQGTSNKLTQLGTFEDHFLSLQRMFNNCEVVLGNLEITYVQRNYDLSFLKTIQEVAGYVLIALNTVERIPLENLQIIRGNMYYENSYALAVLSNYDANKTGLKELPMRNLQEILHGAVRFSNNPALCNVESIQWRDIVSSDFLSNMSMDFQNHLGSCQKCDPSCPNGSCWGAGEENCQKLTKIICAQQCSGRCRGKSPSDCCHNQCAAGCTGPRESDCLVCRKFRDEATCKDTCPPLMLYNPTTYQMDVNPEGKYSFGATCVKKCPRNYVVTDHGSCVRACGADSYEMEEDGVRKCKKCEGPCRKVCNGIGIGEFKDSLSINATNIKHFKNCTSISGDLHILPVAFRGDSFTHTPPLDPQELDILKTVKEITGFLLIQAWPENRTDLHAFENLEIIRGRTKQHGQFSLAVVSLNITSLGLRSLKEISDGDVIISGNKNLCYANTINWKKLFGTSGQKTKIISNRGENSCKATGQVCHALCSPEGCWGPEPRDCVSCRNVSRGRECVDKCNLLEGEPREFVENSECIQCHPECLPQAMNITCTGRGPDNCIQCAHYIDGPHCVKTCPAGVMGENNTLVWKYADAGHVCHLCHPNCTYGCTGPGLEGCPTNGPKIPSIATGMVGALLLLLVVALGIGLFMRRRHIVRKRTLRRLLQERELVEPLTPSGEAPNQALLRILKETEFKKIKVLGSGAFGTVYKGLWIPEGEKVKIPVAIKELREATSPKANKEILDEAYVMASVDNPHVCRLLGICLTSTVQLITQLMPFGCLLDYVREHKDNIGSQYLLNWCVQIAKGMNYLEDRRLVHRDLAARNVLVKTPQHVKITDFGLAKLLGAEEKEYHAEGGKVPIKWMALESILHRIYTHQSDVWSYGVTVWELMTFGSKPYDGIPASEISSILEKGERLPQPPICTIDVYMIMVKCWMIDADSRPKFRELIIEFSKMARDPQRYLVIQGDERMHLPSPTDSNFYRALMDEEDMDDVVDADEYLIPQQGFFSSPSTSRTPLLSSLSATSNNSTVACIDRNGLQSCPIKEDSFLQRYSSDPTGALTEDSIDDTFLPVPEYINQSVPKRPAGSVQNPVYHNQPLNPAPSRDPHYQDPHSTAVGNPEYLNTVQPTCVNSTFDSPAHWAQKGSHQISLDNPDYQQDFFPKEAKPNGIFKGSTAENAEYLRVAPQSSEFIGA

KDR = KDR (Homo sapiens, UniProt P35968); test: Kinase panel profiling; format: biochemical
VEGFR-1 = VEGFR-1 (Homo sapiens, UniProt P17948); test: Kinase panel profiling; format: biochemical
Chain of VEGFR-1 (P17948 27-1338, species assumed): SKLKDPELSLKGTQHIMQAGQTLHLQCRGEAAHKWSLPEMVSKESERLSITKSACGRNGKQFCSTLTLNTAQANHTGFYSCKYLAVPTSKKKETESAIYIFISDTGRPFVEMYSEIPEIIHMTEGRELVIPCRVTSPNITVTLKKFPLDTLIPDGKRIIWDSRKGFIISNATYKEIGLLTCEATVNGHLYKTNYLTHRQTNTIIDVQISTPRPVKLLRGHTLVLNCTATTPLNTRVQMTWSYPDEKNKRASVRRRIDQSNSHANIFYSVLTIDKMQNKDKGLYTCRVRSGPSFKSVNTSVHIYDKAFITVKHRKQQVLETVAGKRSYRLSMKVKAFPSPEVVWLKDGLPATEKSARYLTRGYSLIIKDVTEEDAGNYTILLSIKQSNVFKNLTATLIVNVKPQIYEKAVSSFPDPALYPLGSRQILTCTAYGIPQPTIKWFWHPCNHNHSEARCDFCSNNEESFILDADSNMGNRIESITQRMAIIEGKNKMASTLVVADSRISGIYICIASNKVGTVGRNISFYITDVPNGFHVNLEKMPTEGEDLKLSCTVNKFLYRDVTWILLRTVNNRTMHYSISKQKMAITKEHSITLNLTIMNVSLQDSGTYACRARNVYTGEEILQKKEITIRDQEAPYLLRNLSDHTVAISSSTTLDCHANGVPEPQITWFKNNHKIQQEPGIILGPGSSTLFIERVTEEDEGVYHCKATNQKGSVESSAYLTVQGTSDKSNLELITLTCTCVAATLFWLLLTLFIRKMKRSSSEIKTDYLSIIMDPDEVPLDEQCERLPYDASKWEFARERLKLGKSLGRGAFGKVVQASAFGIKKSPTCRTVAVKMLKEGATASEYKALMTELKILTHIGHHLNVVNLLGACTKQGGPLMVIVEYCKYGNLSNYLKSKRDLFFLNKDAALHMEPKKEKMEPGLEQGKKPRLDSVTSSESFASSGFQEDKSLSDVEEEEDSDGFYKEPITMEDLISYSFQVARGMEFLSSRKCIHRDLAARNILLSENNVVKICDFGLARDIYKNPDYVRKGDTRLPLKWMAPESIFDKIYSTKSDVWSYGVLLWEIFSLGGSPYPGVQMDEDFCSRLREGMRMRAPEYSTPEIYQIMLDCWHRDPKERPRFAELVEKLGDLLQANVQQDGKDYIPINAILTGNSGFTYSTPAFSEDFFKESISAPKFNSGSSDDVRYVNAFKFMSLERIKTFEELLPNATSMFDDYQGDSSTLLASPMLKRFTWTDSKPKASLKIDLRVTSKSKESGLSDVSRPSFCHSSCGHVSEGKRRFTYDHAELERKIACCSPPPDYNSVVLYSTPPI

## O=S(=O)(c1cn(CCF)cn1)n1ccc2ncc(-c3cn[nH]c3)nc21 [Compound 13, 5-((1-(2-fluoroethyl)-1H-imidazol-4-yl)sulfonyl)-3-(1H-pyrazol-4-yl)-5H-pyrrolo[2,3-b]pyrazine]
FGFR3; 10 nM
  inhibition at 0.01 µM: 42.9%
FGFR3; 100 nM
  inhibition at 0.1 µM: 79%
FGFR3; 1000 nM
  inhibition at 1 µM: 88.9%
DDR2; 10 nM
  inhibition at 0.01 µM: 3.6%
DDR2; 100 nM
  inhibition at 0.1 µM: 0.9%
DDR2; 1000 nM
  inhibition at 1 µM: 4.6%
PDGFR-α; 10 nM
  inhibition at 0.01 µM: 21.9%
PDGFR-α; 100 nM
  inhibition at 0.1 µM: 20.9%
PDGFR-α; 1000 nM
  inhibition at 1 µM: 23.2%
PDGFR-β; 10 nM
  inhibition at 0.01 µM: 12.8%
PDGFR-β; 100 nM
  inhibition at 0.1 µM: 30.1%
PDGFR-β; 1000 nM
  inhibition at 1 µM: 58.6%
[1]
  microsomal CLint at 1 μM: 1 µL/min/mg
FGFR2; 10 nM
  inhibition at 0.01 µM: 60.9%
FGFR2; 100 nM
  inhibition at 0.1 µM: 92%
FGFR2; 1000 nM
  inhibition at 1 µM: 97.2%
IGF1R; 10 nM
  inhibition at 0.01 µM: -3.8%
IGF1R; 100 nM
  inhibition at 0.1 µM: 3%
IGF1R; 1000 nM
  inhibition at 1 µM: 11.8%
ROS1; 10 nM
  inhibition at 0.01 µM: -3.8%
ROS1; 100 nM
  inhibition at 0.1 µM: 3%
ROS1; 1000 nM
  inhibition at 1 µM: 11.8%
EGFR; 10 nM
  inhibition at 0.01 µM: 0%
EGFR; 100 nM
  inhibition at 0.1 µM: 0%
EGFR; 1000 nM
  inhibition at 1 µM: 0%
KDR; 10 nM
  inhibition at 0.01 µM: 7.4%
KDR; 100 nM
  inhibition at 0.1 µM: 17.1%
KDR; 1000 nM
  inhibition at 1 µM: 46.3%
VEGFR-1; 10 nM
  inhibition at 0.01 µM: 0%
VEGFR-1; 100 nM
  inhibition at 0.1 µM: 4.9%
VEGFR-1; 1000 nM
  inhibition at 1 µM: 0%

Source: paper PMC6017193, “Structure-Based Discovery of a Series of 5H-Pyrrolo[2,3-b]pyrazine FGFR Kinase Inhibitors” (Molecules : A Journal of Synthetic Chemistry and Natural …, 2018)
